Results published in patent US20150265644A1, “THERAPEUTIC METHODS AND COMPOSITIONS FOR TREATING DIABETES UTILIZING DITERPENOID COMPOUNDS” (Orient Europharma Co., Ltd., priority 2014, published 2015).

Experiments:
[1] = Plasma insulin level before and after treatment in mice; format: in vivo
Protocol: The 4-week-old male ICR mice were purchased from the Animal Center of the College of Medicine, National Taiwan University (Taipei, Taiwan) with delicate humane care. This animal study was conducted by following the University ethical guidelines and the ‘Guide for the Care and Use of Laboratory Animals’ published by the US National Institutes of Health (NIH publication no. 85-23, revised 1996). The animal experiments were approved by the Institutional Animal Care and Use Committee (IACUC) of the National Taiwan University (IACUC No. 20110073). Animals were housed in a room at the constant temperature, 22±1° C., with 12 hours light and dark cycles.
(§1) After three days of acclimatization, the mice had free access to a standard rodent chow (normal mice), a standard rodent chow after single 250 mgkg^−1 streptozotocin (STZ) intraperitoneal injection (TIDM mice), and a fat-rich chow diet and fructose-sweetened water (T2DM mice) for 4 weeks. The induction of Type 1 DM was assessed and confirmed when the mice had plasma glucose levels ≧350 mgdL^−1, accompanied with polyuria, hyperphagia and decreased body weight. The induction Type 2 DM in the mice was assessed by measuring fasting plasma glucose levels and confirmed when plasma glucose level was ≧150 mgdL^−1 after the 4-week induction. The animals were assigned randomly into three groups, with seven animals in each group. In group I, the mice were treated with vehicle, 2% DMSO in normal saline, as the negative control. In group II, the mice were intraperitoneally treated with borapetoside A (0.1-10 mgkg^−1). In […], the mice received intraperitoneally metformin (300 mgkg^−1; Sigma Chemical Co., St. Louis, Mo., U.S.A.) or insulin (0.5 IUkg^−1; Insulin Actrapid® HM; Novo Nordisk, Denmark). In the acute study, mice under anesthesia received a single intraperitoneal administration of borapetoside A, negative control, or positive control. In the subacute study, mice received intraperitoneal administrations of borapetoside A, vehicle, or insulin twice a day for seven days.
(§2) Blood samples were collected from the orbital vascular plexus of the mice under anesthesia. Blood samples were then centrifuged at 13000 rpm for 5 min, and the plasma samples were collected and kept on ice prior to the assay. The plasma glucose concentration was measured by Glucose Kit Reagent (Biosystems S.A., Barcelona, Spain) following the manufacturer's instructions, and the insulin levels were estimated using mouse insulin ELISA kit (Mercodia AB, Uppsala, Sweden).

[2] = Intraperitoneal glucose tolerance test; format: in vivo, mice; details: metformin-treated group, compared to the vehicle group, normal and type 2 DM mice
Protocol: as §1, §2
The mice were maintained under anesthesia throughout the procedure. Glucose (2.0 gkg^−1) was administered intraperitoneally. Blood samples were collected from the orbital vascular plexus at 0, 30, 60, 120 min. The concentrations of the plasma glucose were measured, and the values of AUC were calculated accordingly.

[3] = test system: soleus muscle; test: Glycogen content in soleus muscle in vivo; parameters: species or system mice; details: mice with type 2 DM, insulin 0.5 IUkg^−1 i.p.
Protocol: (§3) The mice were injected with borapetoside A (10 mgkg^−1, interperitoneal) for 60 minutes or insulin (0.5 IUkg^−1, interperitoneal) for 30 minutes. After the treatment, the anesthetic mice were sacrificed by cervical dislocation to collect the soleus muscle and liver. About 40 mg of each sample was dissolved in 1 mol/L KOH at 75° C. for 30 min. The dissolved homogenate was neutralized by glacial acetic acid and then incubated overnight in acetate buffer (0.3 mol/L sodium acetate, pH 4.8) containing amyloglucosidase (Sigma, St. Louis, Mo.). The mixture was then neutralized with 1 mol/L NaOH to stop the reaction. The glycogen contents in the tissue samples were determined as μg of glucose per mg of tissue (wet weight).

[4] = test system: IL-6-treated C2C12 cells; test: Glycogen content assay in IL-6-induced insulin resistant C2C12 cells; format: cell-based; details: IL-6-treated C2C12, 1 nM insulin, 30 minutes
Protocol: The C2C12 skeletal muscle cells were cultured in Dulbecco's modified Eagle's medium (DMEM; Gibco/Invitrogen, Carlsbad, Calif.), and the human hepatocellular carcinoma cell line, Hl-ep3B, was cultured in Roswell Park Memorial Institute medium 1640 (RPMI 1640 medium; Gibco/Invitrogen, Carlsbad, Calif.). Cells were cultured at 37° C. in the humidified incubator supplied with 5% CO2. Culture mediums were supplemented with 4.5 mgmL^−1 glucose, penicillin 100 IUmL^−1, streptomycin 100 μgmL^−1 and 10% fetal bovine serum (Gibco/Invitrogen, Carlsbad, Calif.). Only C2C12 cells were then switched to 2% horse serum for 3 days after reaching the 70% confluence. Myotubes formation was achieved after 4 days of incubation, and the cells were used for subsequent experiments. Culture mediums were replaced by serum free DMEM or RPMI for 24 h before experiments (see e.g., procedure described in Sultan et al., 2006).
C2C12 and Hep3B cells were treated with 1 nM insulin, 100 μM metformin, and the assigned concentration of borapetoside A for 30 minutes. To develop the insulin resistance state of cells, C2C12 cells were incubated with IL-6 at 20 ngmL^−1 for 1 hour. Later, the cells were treated with 1 nM insulin, 100 μM metformin, and the assigned concentration of borapetoside A for 30 minutes. After the assigned treatment, cells were washed twice with phosphate buffered saline (PBS). Glycogen content was measured as previously described, with some modifications (see e.g., Savage et al., 2008). The protein concentrations of the cell lysates were determined by using Pierce BCA Protein Assay Kit (Thermo-Scientific, Rockford, Ill.). The glycogen content of each sample was normalized by total protein.

[5] = test system: liver; test: Glycogen content in liver in vivo; parameters: species or system mice; details: mice with type 2 DM, insulin 0.5 IUkg^−1 i.p.
Protocol: as §3

Row | Compound | Plasma insulin ([1]; T1DM mice, metformin 300 mgkg^−1, after-treatment) | Plasma insulin ([1]; T1DM mice, metformin 300 mgkg^−1, before-treatment) | Plasma insulin ([1]; T2DM mice, metformin 300 mgkg^−1, after-treatment) | Plasma insulin ([1]; T2DM mice, metformin 300 mgkg^−1, before-treatment) | Plasma insulin ([1]; normal mice, metformin 300 mgkg^−1, after-treatment) | Plasma insulin ([1]; normal mice, metformin 300 mgkg^−1, before-treatment) | increase of plasma glucose level at 30 min [2] | glycogen synthesis in soleus muscle [3] | glycogen content [4] | glycogen synthesis in liver [5]
1 | CN(C)C(=N)N=C(N)N [Metformin, metformin, reference compound] | 22.7 ± 0.3 pmol/L | 22.4 ± 0.4 pmol/L | 182.0 ± 27.7 pmol/L | 148.1 ± 15.2 pmol/L | 72 ± 3.1 pmol/L | 66.6 ± 1.3 pmol/L | significantly suppressed |  |  | 
2 | insulin: short-acting insulin, Insulin Actrapid HM (Novo Nordisk), positive control 0.5 IUkg^−1 [reference compound] |  |  |  |  |  |  |  | failed to enhance | not increased | failed to enhance
